# Tested on: bacterial spores
# Assay: Sporicidal Efficacy Test, spore species not given
# Format: cell-based
# Settings: under the Sporicidal Efficacy Test; concentration not given
# From the text: (§1) To determine the kill rate of solutions of interest against bacterial spores.
# (§2) Materials: • 1. Test solutions of interest • 2. Clostridium difficile ATCC 43593 • 3. Geobacillus stearothermophilus CICC 10142 • 4. Filter sterilized MilliQ water • 5. Neutralization broth (prepared according to directions below) • 6. Brain Heart Infusion (BHI) agar plates with 0.15% Sodium Taurocholate • 7. Tryptic Soy Agar (TSA) plates • 8. Taurocholic acid sodium salt hydrate (Sigma-Aldrich T-4009) • 9. Phosphate buffered saline (PBS) pH 7.2 • 10. Fetal Bovine Serum (FBS) • 11. Sterile plating beads • 12. Sterile Eppendorf vials (1.5 mL) • 13. Sterile tubes (15 mL) • 14. Pipettes and sterile pipette tips (100 μL and 1000 μL) • 15. Incubator capable of 37±3° C. • 16. Anaerobic rectangular jar (7 Liter AnaeroPack System commercially available from Mitsubishi Gas Chemical Co.) with 3 GasPak satchels (BD GasPak EZ, #260678)
# (§3) Procedure: • 1. Prepare culture stock of organism of interest to 10^7 CFU/ml in PBS. • 2. Thoroughly vortex the stock culture for ten minutes at medium-high speed. • 3. Dilute a small portion of the stock culture in MilliQ filter sterilized water and add FBS soil load to the inoculum to achieve a concentration of 5% v/v FBS. • 4. Place the inoculum in a sonicating water bath for five cycles of one minute on, one minute off • 5. Add 100 μL of spore culture to sterile vial containing 900 μL of test solution and vortex. • 6. After the test exposure time, vortex the vials. • 7. Transfer 100 μL of test solution and spore mixture to sterile tubes containing 900 μL neutralization broth to neutralize. • 8. Place the neutralized samples in a sonicating water bath for five cycles of one minute on, one minute off • 9. Vortex each tube. For C. difficile, pipette 100 μL of each neutralized sample on BHI+0.15% sodium taurocholate media plates (prepared in lab according to dehydrated powder instructions). For G. stearothermophilus, pipette 100 μL of each neutralized sample onto TSA plates. Spread using sterile beads. • 10. Prepare a control sample by adding the spore culture to 900 μL of filter sterilized MQ water and repeat steps 3-6 above. Dilute control code to achieve 10^2 CFU/ml. • 11. For C. difficile, place plates in anaerobic jars or boxes (with appropriate number of catalase pouches) or in the anaerobic chamber and incubate for 48±8 hours at 37±3° C. For G. stearothermophilus, incubate plates aerobically for 48±8 hours at […]. • 12. After incubation, enumerate colonies and record results. Calculate Log10 reduction by comparing the number of colonies recovered from the test solution versus those recovered with the control.
# (§4) Neutralization Broth Preparation: • 1. Mix the following ingredients: • 1 L Letheen broth • 0.3% ppm Lecithin • 3% ppm Tween 80 • 0.1% ppm Histidine • 2. Solution is sterilized by autoclave. • 3. Catalase (0.1-0.2%) is added when completely cooled and then filter sterilized.
row,Compound,sporicidal activity (in words)
1,CC(C)=CCC[C@]1(C)C=Cc2c(O)c3c(c(CC=C(C)C)c2O1)O[C@]12C(=C[C@@H]4C[C@H]1C(C)(C)O[C@@]2(C/C=C(/C)C(=O)O)C4=O)C3=O [Gambogic acid],demonstrated sporicidal activity
2,C[C@H](N)C(=O)O [L-alanine],None of these ingredients derived from botanical extracts illustrated sporicidal activity
3,O=C(O)[C@@H]1CCCN1 [L-proline],None of these ingredients derived from botanical extracts illustrated sporicidal activity
4,CC(C)=CCCC1(C)CC(O)c2c(O)c3c(c(CC=C(C)C)c2O1)OC12C(=CC4CC1C(C)(C)OC2(C/C=C(\C)C(=O)O)C4=O)C3=O (stereo not drawn) [Neogambogic acid],demonstrated sporicidal activity
5,CC(C)=CCc1cc2c(cc1O)O[C@H](c1ccc(O)cc1)CC2=O [bavachin],None of these ingredients derived from botanical extracts illustrated sporicidal activity
6,O=C(O)/C=C/c1ccc(O)c(O)c1 [caffeic acid],None of these ingredients derived from botanical extracts illustrated sporicidal activity
7,CC12CCC(CC1)C(C)(C)O2 [cineole],None of these ingredients derived from botanical extracts illustrated sporicidal activity
8,Cc1cccc2c3c(ccc12)C1=C(C(=O)C3=O)[C@@H](C)CO1 [dihydrotanshinone],None of these ingredients derived from botanical extracts illustrated sporicidal activity
9,COc1cc(/C=C/C(=O)O)ccc1O [ferulic acid],None of these ingredients derived from botanical extracts illustrated sporicidal activity
10,COC(=O)C1=CO[C@@H](O[C@@H]2O[C@H](CO)[C@@H](O)[C@H](O)[C@H]2O)[C@@H]2C(CO)=CC[C@H]12 [geniposide],None of these ingredients derived from botanical extracts illustrated sporicidal activity
11,O=c1c(-c2ccc(O)cc2)coc2cc(O)cc(O)c12 [genistein],None of these botanical extracts illustrated sporicidal activity
12,COc1ccc(-c2oc3c(CC=C(C)C)c(O)cc(O)c3c(=O)c2O)cc1 [icaritin],None of these ingredients derived from botanical extracts illustrated sporicidal activity
13,CC(C)=CCOc1c2occc2cc2ccc(=O)oc12 [imperatonin],None of these ingredients derived from botanical extracts illustrated sporicidal activity
14,CC(C)=CCOc1c2ccoc2cc2oc(=O)ccc12 [isoimperatorin],None of these ingredients derived from botanical extracts illustrated sporicidal activity
15,O=c1c(OC2OC(CO)C(O)C(O)C2O)c(-c2ccc(O)c(O)c2)oc2cc(O)cc(O)c12 (stereo not drawn) [isoquercetrin],None of these ingredients derived from botanical extracts illustrated sporicidal activity
16,O=c1c(O)c(-c2ccc(O)cc2)oc2cc(O)cc(O)c12 [kaempferol],None of these botanical extracts illustrated sporicidal activity

row,Compound,sporicidal activity (in words)
1,O=c1cc(-c2ccc(O)c(O)c2)oc2cc(O)cc(O)c12 [luteolin],None of these botanical extracts illustrated sporicidal activity
2,CC(C)=CCc1cc(-c2coc3cc(O)ccc3c2=O)ccc1O [neobavaisoflavone],None of these ingredients derived from botanical extracts illustrated sporicidal activity
3,O=c1cc(-c2ccccc2)oc2cc(O)c(O)c(O)c12 [noroxylin],None of these botanical extracts illustrated sporicidal activity
4,CC1(C)CC[C@]2(C(=O)O)CC[C@]3(C)C(=CC[C@@H]4[C@@]5(C)CC[C@H](O)C(C)(C)[C@@H]5CC[C@]43C)[C@@H]2C1 [oleanolic acid],None of these ingredients derived from botanical extracts illustrated sporicidal activity
5,COc1ccc2ccc(=O)oc2c1CC=C(C)C [osthole],None of these botanical extracts illustrated sporicidal activity
6,O=C(O)C=Cc1ccc(O)cc1 [p-hydroxy-cinnamic acid],None of these botanical extracts illustrated sporicidal activity
7,O=C(O)c1ccc(O)cc1 [p-hydroxybenzoic acid],None of these ingredients derived from botanical extracts illustrated sporicidal activity
8,O=C(O)c1ccc(O)c(O)c1 [protocatechuic acid],None of these ingredients derived from botanical extracts illustrated sporicidal activity
9,O=c1c(-c2ccc(O)cc2)coc2c([C@@H]3O[C@H](CO)[C@@H](O)[C@H](O)[C@H]3O)c(O)ccc12 [puerarin],None of these botanical extracts illustrated sporicidal activity
10,O=c1c(O)c(-c2ccc(O)c(O)c2)oc2cc(O)cc(O)c12 [quercetin],None of these botanical extracts illustrated sporicidal activity
11,OC[C@H]1O[C@@H](OCCc2ccc(O)cc2)[C@H](O)[C@@H](O)[C@@H]1O [salidroside],None of these botanical extracts illustrated sporicidal activity
12,CC[C@H](/C=C/[C@@H](C)[C@H]1CC[C@H]2[C@@H]3CC=C4C[C@@H](O)CC[C@]4(C)[C@H]3CC[C@]12C)C(C)C [stigmasterol],None of these ingredients derived from botanical extracts illustrated sporicidal activity
13,Cc1coc2c1C(=O)C(=O)c1c-2ccc2c1CCCC2(C)C [tanshinone IIA],None of these ingredients derived from botanical extracts illustrated sporicidal activity
14,NCCC(=O)O [β-alanine],None of these ingredients derived from botanical extracts illustrated sporicidal activity
15,bavachinin,None of these ingredients derived from botanical extracts illustrated sporicidal activity

# Tested on: C. diff. spores (Clostridium difficile ATCC 43593)
# Assay: Sporicidal Efficacy Test against C. diff. spores
# Format: cell-based
# Settings: botanical-derived ingredient 5.9 mg/ml in 75 % ethanol / 25 % water by volume; 5 min contact time
# From the text: as §1, §2, §3, §4
row,Compound,Log Reduction (5 min contact time)
1,C[C@H]1COC2=C1C(=O)C(=O)c1c2ccc2c1CCCC2(C)C [Cryptotanshinone],3.43

# Same assay, conditions: botanical-derived ingredient 10 mg/ml in 75 % ethanol / 25 % water by volume; 5 min contact time
row,Compound,Log Reduction (5 min contact time)
1,CC(C)=CCC[C@]1(C)C=Cc2c(O)c3c(c(CC=C(C)C)c2O1)O[C@]12C(=C[C@@H]4C[C@H]1C(C)(C)O[C@@]2(C/C=C(/C)C(=O)O)C4=O)C3=O [Gambogic acid],3.96
2,CC(C)=CCCC1(C)CC(O)c2c(O)c3c(c(CC=C(C)C)c2O1)OC12C(=CC4CC1C(C)(C)OC2(C/C=C(\C)C(=O)O)C4=O)C3=O (stereo not drawn) [Neogambogic acid],3.96

# Same assay, conditions: concentration not given
row,Compound,sporicidal activity against C. diff. (in words)
1,Cc1cccc2c3c(ccc12)C1=C(C(=O)C3=O)[C@@H](C)CO1 [dihydrotanshinone],no detectable effect
2,Cc1coc2c1C(=O)C(=O)c1c-2ccc2c1CCCC2(C)C [tanshinone IIA],no detectable effect

# From patent publication US20150064227A1, “Sporicidal Formulation Including Botanical Extracts/Botanical-Derived Ingredients” (priority 2011, published 2015)
